Assay results taken from the supplement of paper PMC10627819.

Key:
[1] = tested on: S. pneumoniae D39V; assay: fitness (endpoint OD595 vs no drug) (fraction); higher = more growth
Procedure, shortened: (§1)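 With the first reading as background, OD595 was measured every 30 min for 14 h in 384-well plates kept at 37 °C and inoculated at OD595 0.01. TSB, LB Lennox or CY was the medium. Fitness is the optical density at the transition into stationary phase divided by the robust mean of no-drug control wells, with a cap of 1.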

[2] = tested on: B. subtilis 168; assay: as above
Procedure, shortened: as §1

[3] = tested on: S. aureus Newman; assay: as above
Procedure, shortened: as §1

[4] = tested on: S. aureus DSM 20231; assay: as above
Procedure, shortened: as §1

[5] = tested on: S. pneumoniae D39V; assay: Bliss interaction score (quartile over a dose matrix) (fitness difference); higher = more antagonism (negative = synergy)
Procedure, shortened: (§2)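 Growth in each well was taken as OD595 at entry into stationary phase. Dividing by the plate's robust no-drug mean and capping at 1 gave fitness, and single-drug fitness was inferred from the combination data. The Bliss score, observed minus product-expected fitness, is summarised by quartiles over technical, biological and donor/recipient replicates.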

[6] = tested on: B. subtilis 168; assay: as above
Procedure, shortened: as §2

[7] = tested on: S. aureus Newman; assay: as above
Procedure, shortened: as §2

[8] = tested on: S. aureus DSM 20231; assay: as above
Procedure, shortened: as §2
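For Bliss interaction score (quartile over a dose matrix) in this document: first quartile when negative (synergy) and third quartile when positive (antagonism).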

CO/N=C(\C(=O)N[C@@H]1C(=O)N2C(C(=O)O)=C(COC(C)=O)CS[C@H]12)c1csc(N)n1 [Cefotaxime] + COc1c(N2C[C@@H]3CCCN[C@@H]3C2)c(F)cc2c(=O)c(C(=O)O)cn(C3CC3)c12 [Moxifloxacin]
Conditions | fitness
[1], first compound 0.0018 µg/mL, partner 0.005 µg/mL | 0.979
[1], first compound 0.0018 µg/mL, partner 0.01 µg/mL | 0.976
[1], first compound 0.0018 µg/mL, partner 0.02 µg/mL | 0.987
[1], first compound 0.0018 µg/mL, partner 0.0312 µg/mL | 0.13
[1], first compound 0.0018 µg/mL, partner 0.0625 µg/mL | 0.0856
[1], first compound 0.0018 µg/mL, partner 0.125 µg/mL | 0.0466
[1], first compound 0.0035 µg/mL, partner 0.005 µg/mL | 0.973
[1], first compound 0.0035 µg/mL, partner 0.01 µg/mL | 0.976
[1], first compound 0.0035 µg/mL, partner 0.02 µg/mL | 0.964
[1], first compound 0.0035 µg/mL, partner 0.0312 µg/mL | 0.108
[1], first compound 0.0035 µg/mL, partner 0.0625 µg/mL | 0.0929
[1], first compound 0.0035 µg/mL, partner 0.125 µg/mL | 0.0516
[1], first compound 0.007 µg/mL, partner 0.005 µg/mL | 0.801
[1], first compound 0.007 µg/mL, partner 0.01 µg/mL | 0.827
[1], first compound 0.007 µg/mL, partner 0.02 µg/mL | 0.833
[1], first compound 0.007 µg/mL, partner 0.0312 µg/mL | 0.0633
[1], first compound 0.007 µg/mL, partner 0.0625 µg/mL | 0.0639
[1], first compound 0.007 µg/mL, partner 0.125 µg/mL | 0.046
[2], first compound 0.0625 µg/mL, partner 0.0312 µg/mL | 0.0617
[2], first compound 0.0625 µg/mL, partner 0.0625 µg/mL | 0.0437
[2], first compound 0.0625 µg/mL, partner 0.125 µg/mL | 0.0547
[2], first compound 0.125 µg/mL, partner 0.0312 µg/mL | 0.062
[2], first compound 0.125 µg/mL, partner 0.0625 µg/mL | 0.044
[2], first compound 0.125 µg/mL, partner 0.125 µg/mL | 0.05
[2], first compound 0.25 µg/mL, partner 0.0312 µg/mL | 0.0545
[2], first compound 0.25 µg/mL, partner 0.0625 µg/mL | 0.0527
[2], first compound 0.25 µg/mL, partner 0.125 µg/mL | 0.0632
[2], first compound 0.5 µg/mL, partner 2 µg/mL | 0.0626
[2], first compound 0.5 µg/mL, partner 4 µg/mL | 0.0595
[2], first compound 0.5 µg/mL, partner 8 µg/mL | 0.043
[2], first compound 1 µg/mL, partner 2 µg/mL | 0.0496
[2], first compound 1 µg/mL, partner 4 µg/mL | 0.0443
[2], first compound 1 µg/mL, partner 8 µg/mL | 0.0259
[2], first compound 2 µg/mL, partner 2 µg/mL | 0.0811
[2], first compound 2 µg/mL, partner 4 µg/mL | 0.0907
[2], first compound 2 µg/mL, partner 8 µg/mL | 0.0539
[3], first compound 0.078 µg/mL, partner 0.0075 µg/mL | 0.657
[3], first compound 0.078 µg/mL, partner 0.015 µg/mL | 0.498
[3], first compound 0.078 µg/mL, partner 0.03 µg/mL | 0.0551
[3], first compound 0.156 µg/mL, partner 0.0075 µg/mL | 0.558
[3], first compound 0.156 µg/mL, partner 0.015 µg/mL | 0.432
[3], first compound 0.156 µg/mL, partner 0.03 µg/mL | 0.046
[3], first compound 0.312 µg/mL, partner 0.0075 µg/mL | 0.354
[3], first compound 0.312 µg/mL, partner 0.015 µg/mL | 0.165
[3], first compound 0.312 µg/mL, partner 0.03 µg/mL | 0.0657
[3], first compound 0.625 µg/mL, partner 0.0075 µg/mL | 0.0357
[3], first compound 0.625 µg/mL, partner 0.015 µg/mL | 0.019
[3], first compound 0.625 µg/mL, partner 0.03 µg/mL | 0.0143
[3], first compound 1.25 µg/mL, partner 0.0075 µg/mL | 0.0365
[3], first compound 1.25 µg/mL, partner 0.015 µg/mL | 0.0045
[3], first compound 1.25 µg/mL, partner 0.03 µg/mL | 0.0158
[3], first compound 2.5 µg/mL, partner 0.0075 µg/mL | 0.0488
[3], first compound 2.5 µg/mL, partner 0.015 µg/mL | 0.0142
[3], first compound 2.5 µg/mL, partner 0.03 µg/mL | 0.0162
[4], first compound 0.039 µg/mL, partner 0.0075 µg/mL | 0.674
[4], first compound 0.039 µg/mL, partner 0.015 µg/mL | 0.612
[4], first compound 0.039 µg/mL, partner 0.03 µg/mL | 0.543
[4], first compound 0.078 µg/mL, partner 0.0075 µg/mL | 0.668
[4], first compound 0.078 µg/mL, partner 0.015 µg/mL | 0.634
[4], first compound 0.078 µg/mL, partner 0.03 µg/mL | 0.554
[4], first compound 0.156 µg/mL, partner 0.0075 µg/mL | 0.636
[4], first compound 0.156 µg/mL, partner 0.015 µg/mL | 0.603
[4], first compound 0.156 µg/mL, partner 0.03 µg/mL | 0.536
[4], first compound 0.312 µg/mL, partner 0.0075 µg/mL | 0.574
[4], first compound 0.312 µg/mL, partner 0.015 µg/mL | 0.549
[4], first compound 0.312 µg/mL, partner 0.03 µg/mL | 0.491

one replicate
Conditions | fitness
[2], first compound 0.00775 µg/mL, partner 0.0312 µg/mL | 0.0585
[2], first compound 0.00775 µg/mL, partner 0.0625 µg/mL | 0.0377
[2], first compound 0.00775 µg/mL, partner 0.125 µg/mL | 0.0204
[2], first compound 0.0155 µg/mL, partner 0.0312 µg/mL | 0.0281
[2], first compound 0.0155 µg/mL, partner 0.0625 µg/mL | 0.0221
[2], first compound 0.0155 µg/mL, partner 0.125 µg/mL | 0.0115
[2], first compound 0.031 µg/mL, partner 0.0312 µg/mL | 0.041
[2], first compound 0.031 µg/mL, partner 0.0625 µg/mL | 0.028
[2], first compound 0.031 µg/mL, partner 0.125 µg/mL | 0.0186
[3], first compound 0.039 µg/mL, partner 0.0075 µg/mL | 0.669
[3], first compound 0.039 µg/mL, partner 0.015 µg/mL | 0.529
[3], first compound 0.039 µg/mL, partner 0.03 µg/mL | 0.0684
[4], first compound 0.039 µg/mL, partner 0.06 µg/mL | 0.611
[4], first compound 0.039 µg/mL, partner 0.12 µg/mL | 0.449
[4], first compound 0.078 µg/mL, partner 0.06 µg/mL | 0.588
[4], first compound 0.078 µg/mL, partner 0.12 µg/mL | 0.478
[4], first compound 0.156 µg/mL, partner 0.06 µg/mL | 0.568
[4], first compound 0.156 µg/mL, partner 0.12 µg/mL | 0.445
[4], first compound 0.312 µg/mL, partner 0.06 µg/mL | 0.518
[4], first compound 0.312 µg/mL, partner 0.12 µg/mL | 0.408

Conditions | Bliss interaction score
[5] | -0.0434
[6] | 0.0581
[7] | 0.0354
[8] | -0.0497

CO/N=C(\C(=O)N[C@@H]1C(=O)N2C(C(=O)O)=C(COC(C)=O)CS[C@H]12)c1csc(N)n1 [Cefotaxime] + Cc1ncc([N+](=O)[O-])n1CCO [Metronidazole]
fitness
Conditions | partner 0.625 µg/mL | partner 1.073 µg/mL | partner 1.25 µg/mL | partner 2.145 µg/mL | partner 2.5 µg/mL | partner 4.29 µg/mL | partner 5 µg/mL
[1], first compound 0.0018 µg/mL | – | 0.976 | 0.963 | 0.928 | 0.996 | 0.972 | 0.975
[1], first compound 0.0035 µg/mL | – | 0.987 | 0.979 | 0.92 | 0.975 | 0.939 | 0.973
[1], first compound 0.007 µg/mL | – | 0.95 | 0.961 | 0.89 | 0.99 | 0.933 | 0.953
[2], first compound 0.5 µg/mL | 0.299 | – | 0.289 | – | 0.278 | – | –
[2], first compound 1 µg/mL | 0.152 | – | 0.135 | – | 0.146 | – | –
[2], first compound 2 µg/mL | 0.0908 | – | 0.109 | – | 0.108 | – | –
[3], first compound 0.078 µg/mL | 0.767 | – | 0.779 | – | 0.792 | – | –
[3], first compound 0.156 µg/mL | 0.663 | – | 0.705 | – | 0.674 | – | –
[4], first compound 0.039 µg/mL | 0.825 | – | 0.888 | – | 0.963 | – | –
[4], first compound 0.078 µg/mL | 0.829 | – | 0.828 | – | 0.913 | – | –
[4], first compound 0.156 µg/mL | 0.689 | – | 0.745 | – | 0.813 | – | –
[4], first compound 0.312 µg/mL | 0.621 | – | 0.649 | – | 0.674 | – | –

fitness, one replicate
Conditions | partner 0.625 µg/mL | partner 0.781 µg/mL | partner 1.25 µg/mL | partner 1.562 µg/mL | partner 2.5 µg/mL | partner 3.124 µg/mL
[2], first compound 0.00775 µg/mL | 0.871 | – | 0.887 | – | 0.851 | –
[2], first compound 0.0155 µg/mL | 0.728 | – | 0.672 | – | 0.707 | –
[2], first compound 0.031 µg/mL | 0.553 | – | 0.576 | – | 0.594 | –
[3], first compound 0.039 µg/mL | 0.888 | – | 0.794 | – | 0.817 | –
[3], first compound 0.078 µg/mL | – | 0.714 | – | 0.756 | – | 0.788
[3], first compound 0.156 µg/mL | – | 0.492 | – | 0.486 | – | 0.529
[3], first compound 0.312 µg/mL | 0.248 | 0.305 | 0.311 | 0.397 | 0.329 | 0.361
[3], first compound 0.625 µg/mL | – | 0.0599 | – | 0.0931 | – | 0.0887
[3], first compound 1.25 µg/mL | – | 0.0419 | – | 0.0637 | – | 0.07
[3], first compound 2.5 µg/mL | – | 0.0362 | – | 0.0976 | – | 0.0571

Conditions | Bliss interaction score
[5] | 0.0575
[6] | 0.0904
[7] | 0.0437
[8] | -0.0403
